For two molecules, TGI results are on record in PubChem BioAssay (NCI).

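Following 48 hours of exposure in 96-well plates, responses at five concentrations were used to interpolate endpoints linearly. TGI denotes the concentration required for complete inhibition of growth.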

The subject of this assay is SN12K1 renal. Kind of assay: NCI tumour cell line growth inhibition, 48 h.

In the case of `CC1CC(C)(O)C2C3(C)CCCC2(COC3=O)C12CCC1(CCOC1=O)O2` (configuration not stated), the TGI was more than 250 µM.

With `O=P1(Oc2ccc(Cl)cc2Cl)Oc2cc3ccccc3cc2O1`, the TGI is more than 100 µM.
